The source made the active and inactive calls. No cut-off for these calls is given here.
Tests used:
[1] = target: T1, Replicase polyprotein 1ab (Severe acute respiratory syndrome coronavirus 2, UniProt P0DTD1); test: Inhibition of SARS-CoV2 PLpro using Z-RLRGG-AMC as substrate preincubated for 10 mins followed by substrate addition and measured after 20 sec shaking for 30 mins by time-resolved fluorescence assay
[2] = Metabolic stability in human liver microsomes assessed as half life at 1 uM preincubated for 5 mins followed by NADPH addition and measured after 30 mins by LC-MS/MS analysis; type: ADME, Microsome; details: time 35 min
[3] = Metabolic stability in CD-1 mouse liver microsomes assessed as half life at 1 uM preincubated for 5 mins followed by NADPH addition and measured after 30 mins by LC-MS/MS analysis; type: ADME, Microsome; details: time 35 min
[4] = Metabolic stability in human liver microsomes assessed as compound remaining at 1 uM preincubated for 5 mins followed by NADPH addition and measured after 30 mins by LC-MS/MS analysis; type: ADME, Microsome; details: read-out: Stability
[5] = Metabolic stability in CD-1 mouse liver microsomes assessed as compound remaining at 1 uM preincubated for 5 mins followed by NADPH addition and measured after 30 mins by LC-MS/MS analysis; type: ADME, Microsome; details: read-out: Stability
[6] = Half life in BALB/c mouse at 50 mg/kg, po measured upto 48 hrs by LC-MS/MS analysis; type: ADME, organism-based; details: in vivo
[7] = Tmax in BALB/c mouse at 50 mg/kg, po measured upto 48 hrs by LC-MS/MS analysis; type: ADME, organism-based; details: in vivo
[8] = Cmax in BALB/c mouse at 50 mg/kg, po measured upto 48 hrs by LC-MS/MS analysis; type: ADME, organism-based; details: in vivo
[9] = AUC(0 to t) in BALB/c mouse at 50 mg/kg, po measured upto 48 hrs by LC-MS/MS analysis; type: ADME, organism-based; details: in vivo
[10] = AUC(0 to infinity) in BALB/c mouse at 50 mg/kg, po measured upto 48 hrs by LC-MS/MS analysis; type: ADME, organism-based; details: in vivo
[11] = MRT(0 to t) in BALB/c mouse at 50 mg/kg, po measured upto 48 hrs by LC-MS/MS analysis; type: ADME, organism-based; details: in vivo
[12] = MRT(0 to infinity) in BALB/c mouse at 50 mg/kg, po measured upto 48 hrs by LC-MS/MS analysis; type: ADME, organism-based; details: in vivo
[13] = Oral bioavailability in BALB/c mouse at 50 mg/kg measured upto 48 hrs by LC-MS/MS analysis; type: ADME, organism-based; details: in vivo
[14] = Half life in BALB/c mouse at 5 mg/kg, iv measured upto 48 hrs by LC-MS/MS analysis; type: ADME, organism-based; details: in vivo
[15] = Tmax in BALB/c mouse at 5 mg/kg, iv measured upto 48 hrs by LC-MS/MS analysis; type: ADME, organism-based; details: in vivo
[16] = Cmax in BALB/c mouse at 5 mg/kg, iv measured upto 48 hrs by LC-MS/MS analysis; type: ADME, organism-based; details: in vivo
[17] = AUC(0 to t) in BALB/c mouse at 5 mg/kg, iv measured upto 48 hrs by LC-MS/MS analysis; type: ADME, organism-based; details: in vivo
[18] = AUC(0 to infinity) in BALB/c mouse at 5 mg/kg, iv measured upto 48 hrs by LC-MS/MS analysis; type: ADME, organism-based; details: in vivo
[19] = MRT(0 to t) in BALB/c mouse at 5 mg/kg, iv measured upto 48 hrs by LC-MS/MS analysis; type: ADME, organism-based; details: in vivo
[20] = MRT(0 to infinity) in BALB/c mouse at 5 mg/kg, iv measured upto 48 hrs by LC-MS/MS analysis; type: ADME, organism-based; details: in vivo
[21] = Clearance in BALB/c mouse at 5 mg/kg, iv measured upto 48 hrs by LC-MS/MS analysis; type: ADME, organism-based; details: in vivo
[22] = Cytotoxicity against african green monkey Vero E6 cells incubated for 48 hrs; type: toxicity, cell-based, Vero C1008; details: chlorocebus sabaeus
[23] = target: T1, Replicase polyprotein 1ab; test: Binding affinity to SARS-CoV2 PLpro by biolayer interferometry analysis
[24] = target: Replicase polyprotein 1ab (Severe acute respiratory syndrome coronavirus 2) (UniProt P0DTD1); test: Inhibition of SARS-CoV2 PLpro cleavage activity using 2Ub-K48 as substrate incubated overnight by SYPRO Ruby staining based SDS-PAGE analysis
[25] = target: Replicase polyprotein 1ab (Severe acute respiratory syndrome coronavirus 2) (UniProt P0DTD1); test: Inhibition of RLRGG binding to SARS-CoV2 PLpro
[26] = test system: Severe acute respiratory syndrome-related coronavirus; test: Inhibition of SARS-CoV PLpro using Z-RLRGG-AMC as substrate preincubated for 10 mins followed by substrate addition and measured after 20 sec shaking for 30 mins by time-resolved fluorescence assay
[27] = target: Replicase polyprotein 1ab (Middle East respiratory syndrome-related coronavirus (isolate UnitedKingdom/H123990006/2012) (Betacoronavirus England 1) (Humancoronavirus EMC)) (UniProt K9N7C7); test: Inhibition of MERS-CoV PLpro using Z-RLRGG-AMC as substrate preincubated for 10 mins followed by substrate addition and measured after 20 sec shaking for 30 mins by time-resolved fluorescence assay; details: time 40.3 min
[28] = target: Replicase polyprotein 1ab (Severe acute respiratory syndrome coronavirus 2) (UniProt P0DTD1); test: Binding affinity to SARS-CoV2 PLpro assessed as stabilization by measuring increase melting temperature by thermal shift assay
[29] = Metabolic stability in human hepatocytes assessed as half life at 1 uM measured upto 30 mins; type: ADME, cell-based, Hepatocyte
[30] = Metabolic stability in mouse hepatocytes assessed as half life at 1 uM measured upto 30 mins; type: ADME, cell-based, Hepatocyte
[31] = Metabolic stability in human hepatocytes assessed as intrinsic clearance per million cells at 1 uM measured upto 30 mins; type: ADME, cell-based, Hepatocyte; details: read-out: CLH
[32] = Metabolic stability in mouse hepatocytes assessed as intrinsic clearance per million cells at 1 uM measured upto 30 mins; type: ADME, cell-based, Hepatocyte; details: read-out: CLH
[33] = Metabolic stability in human hepatocytes assessed as compound remaining at 1 uM measured after 30 mins; type: ADME, cell-based, Hepatocyte; details: read-out: Stability
[34] = Metabolic stability in mouse hepatocytes assessed as compound remaining at 1 uM measured after 30 mins; type: ADME, cell-based, Hepatocyte; details: read-out: Stability
[35] = Metabolic stability in human liver microsomes assessed as half life; type: ADME, Microsome
[36] = Metabolic stability in human liver microsomes assessed as intrinsic clearance; type: ADME, Microsome; details: read-out: CLH

SMILES | IC50 [1] | half-life at 1 µM [2] | half-life at 1 µM [3] | remaining at 0.5 h, 1 µM [4] | remaining at 0.5 h, 1 µM [5] | half-life [6] | Tmax [7] | Cmax [8] | AUC(0-t) at 48 h [9] | AUC(0-inf) [10] | MRT last at 48 h [11] | MRT inf [12] | bioavailability [13] | half-life [14] | Tmax [15] | Cmax [16] | AUC(0-t) at 48 h [17] | AUC(0-inf) [18] | MRT last at 48 h [19] | CC50 at 48 h [22] | further results
CC(c1nc(-c2ccc(-c3ccc(C(=O)O)s3)cc2)no1)c1cccc2ccccc12 (centres undefined) | 1.8 µM | > 1.55 h | > 1.55 h | 82.1% | 101% | 6.5 h | 0.88 h | 3670 ng/mL | 17400 ng·h/mL | 17500 ng·h/mL | 8.05 h | 8.29 h | 4.8% | 5.8 h | 0.17 h | 14200 ng/mL | 36300 ng·h/mL | 36300 ng·h/mL | 5.04 h | 170 µM | MRT inf [20]: 5.12 h; clearance [21]: 2.35 mL/min/kg; Kd [23]: 13.6 µM; inhibition [24]: Active; inhibition [25]: Active; inhibition [26]: Active; inhibition [27]: Active; Activity [28]: Active
Cc1ccc(-c2noc(C(C)c3ccc(-c4ccccc4)c(F)c3)n2)cc1NCc1ccc(C(=O)O)s1 (racemic) | 1 µM | > 1.55 h | > 1.55 h | 101% | 99.1% | 2.53 h | 1.25 h | 10200 ng/mL | 24300 ng·h/mL | 24400 ng·h/mL | 2.19 h | 2.72 h | 39.1% | 4.2 h | 0.05 h | 10600 ng/mL | 6210 ng·h/mL | 6260 ng·h/mL | 2.74 h | 124 µM | MRT inf [20]: 2.96 h; clearance [21]: 13.5 mL/min/kg; Kd [23]: 13.6 µM; inhibition [24]: Active; inhibition [25]: Active; inhibition [26]: Active; inhibition [27]: Active
Cc1ccc(N)cc1C(=O)N[C@H](C)c1cccc2ccccc12 | – | – | – | – | – | – | – | – | – | – | – | – | – | – | – | – | – | – | – | 253 µM | half-life at 1 µM [29]: 0.75 h; half-life at 1 µM [30]: 7.6 min; hepatocyte CLint at 1 µM [31]: 15.4 µL/min/1e6 cells; hepatocyte CLint at 1 µM [32]: 91.5 µL/min/1e6 cells; remaining at 0.5 h, 1 µM [33]: 63%; remaining at 0.5 h, 1 µM [34]: 6.4%; half-life [35]: 0.44 h; CLint scaled [36]: 27 mL/min/kg

Source: ChEMBL document CHEMBL5500399, “Design, Synthesis, and Biological Evaluation of 1,2,4-Oxadiazole Derivatives Containing an Aryl Carboxylic Acid Moiety as Potent Sarbecovirus Papain-like Protease Inhibitors” (J Med Chem, 2024)
